Columns and labels:
[1] = system: Hepatitis C virus; assay: Antiviral activity against HCV genotype 4a ED-43/SG-feo (VYG) replicons infected in human Huh7.5 cells assessed as inhibition of viral replication after 72 hrs by immunofluorescence assay; format: functional, organism-based, Hepacivirus hominis; conditions: Huh-7, 72 h
[2] = system: Hepatitis C virus; assay: Antiviral activity against HCV genotype 4a ED-43/SG-feo (VYG) replicons infected in human Huh7.5 cells assessed as inhibition of viral replication at non-toxic dose after 72 hrs by immunofluorescence assay; format: functional, Hepacivirus hominis, Huh-7
[3] = Cytotoxicity against human Huh7.5 cells infected with HCV genotype 4a assessed as cell viability after 72 hrs by trypan blue dye-based phase contrast microscopy; conditions: Huh-7, 72 h
[4] = Cytotoxicity against human Huh7.5 cells infected with HCV genotype 4a assessed as morphological changes after 72 hrs by inverted light microscopy; format: cell-based, Huh-7

Clc1cccc(-n2c(-c3ccccc3)c(-c3ccccc3)c3c(Cl)ncnc32)c1
IC50 [1]: > 150 µM | inhibition (INH) [2]: 0% | CC50 [3]: 168 µM | CC50 at 72 h [4]: 168 µM

S=c1[nH]cnc2c1c(-c1ccccc1)c(-c1ccccc1)n2C1CCCCC1
IC50 [1]: > 150 µM | CC50 [3]: 130 µM | CC50 at 72 h [4]: 130 µM

S=c1[nH]nc2c3c(-c4ccccc4)c(-c4ccccc4)n(-c4cccc(Cl)c4)c3ncn12
IC50 [1]: > 150 µM | CC50 [3]: 184 µM | CC50 at 72 h [4]: 184 µM

Cc1nc2c(c(-c3ccccc3)c(-c3ccccc3)n2-c2cccc(Cl)c2)c(=O)[nH]1
IC50 [1]: > 150 µM | CC50 [3]: 97 µM | CC50 at 72 h [4]: 97 µM

O=c1[nH]cnc2c1c(-c1ccccc1)c(-c1ccccc1)n2C1CCCCC1
IC50 [1]: > 150 µM | CC50 [3]: 190 µM | CC50 at 72 h [4]: 190 µM

Cc1cc(C)n(-c2ncnc3c2c(-c2ccccc2)c(-c2ccccc2)n3-c2ccc(Cl)cc2)n1
IC50 [1]: > 150 µM | CC50 [3]: 147 µM | CC50 at 72 h [4]: 147 µM

Cc1nc2c(c(-c3ccccc3)c(-c3ccccc3)n2-c2ccc(Cl)cc2)c(=O)[nH]1
IC50 [1]: > 150 µM | CC50 [3]: 97 µM | CC50 at 72 h [4]: 97 µM

Cc1cc(C)n(-c2ncnc3c2c(-c2ccccc2)c(-c2ccccc2)n3C2CCCCC2)n1
IC50 [1]: > 150 µM | CC50 [3]: 156 µM | CC50 at 72 h [4]: 156 µM

COc1ccc(/C=N/Nc2ncnc3c2c(-c2ccccc2)c(-c2ccccc2)n3C2CCCCC2)cc1
IC50 [1]: > 150 µM | CC50 [3]: 140 µM | CC50 at 72 h [4]: 140 µM

S=c1[nH]cnc2c1c(-c1ccccc1)c(-c1ccccc1)n2-c1ccc(Cl)cc1
IC50 [1]: > 150 µM | CC50 [3]: 121 µM | CC50 at 72 h [4]: 121 µM

Cc1ccc(Nc2ncnc3c2c(-c2ccccc2)c(-c2ccccc2)n3C2CCCCC2)cc1
IC50 [1]: > 150 µM | CC50 [3]: 153 µM | CC50 at 72 h [4]: 153 µM

c1ccc(-c2c(-c3ccccc3)n(C3CCCCC3)c3ncn4cnnc4c23)cc1
IC50 [1]: > 150 µM | CC50 [3]: 178 µM | CC50 at 72 h [4]: 178 µM

N#Cc1c(-c2ccccc2)c(-c2ccccc2)n(C2CCCCC2)c1N
IC50 [1]: > 150 µM | CC50 [3]: 176 µM | CC50 at 72 h [4]: 176 µM

Cc1cccc(Nc2ncnc3c2c(-c2ccccc2)c(-c2ccccc2)n3-c2ccc(Cl)cc2)c1
IC50 [1]: > 150 µM | CC50 [3]: 1020 µM | CC50 at 72 h [4]: 1020 µM

Clc1cccc(-n2c(-c3ccccc3)c(-c3ccccc3)c3c(N/N=C/c4ccccc4)ncnc32)c1
IC50 [1]: > 150 µM | CC50 [3]: 140 µM | CC50 at 72 h [4]: 140 µM

O=c1[nH]cnc2c1c(-c1ccccc1)c(-c1ccccc1)n2-c1cccc(Cl)c1
IC50 [1]: > 150 µM | CC50 [3]: 151 µM | CC50 at 72 h [4]: 151 µM

Clc1ccc(/C=N/Nc2ncnc3c2c(-c2ccccc2)c(-c2ccccc2)n3-c2cccc(Cl)c2)cc1
IC50 [1]: 102 µM | inhibition (INH) [2]: 63.3% | CC50 [3]: 131 µM | CC50 at 72 h [4]: 131 µM

CC(=O)Nc1c(C#N)c(-c2ccccc2)c(-c2ccccc2)n1-c1ccc(Cl)cc1
IC50 [1]: > 150 µM | CC50 [3]: 146 µM | CC50 at 72 h [4]: 146 µM

Clc1ncnc2c1c(-c1ccccc1)c(-c1ccccc1)n2C1CCCCC1
IC50 [1]: > 150 µM | CC50 [3]: 155 µM | CC50 at 72 h [4]: 155 µM

Cc1nnc2c3c(-c4ccccc4)c(-c4ccccc4)n(-c4ccc(Cl)cc4)c3ncn12
IC50 [1]: > 150 µM | CC50 [3]: 138 µM | CC50 at 72 h [4]: 138 µM

Cc1nnc2c3c(-c4ccccc4)c(-c4ccccc4)n(C4CCCCC4)c3ncn12
IC50 [1]: > 150 µM | CC50 [3]: 172 µM | CC50 at 72 h [4]: 172 µM

Cc1ccc(Nc2ncnc3c2c(-c2ccccc2)c(-c2ccccc2)n3-c2ccc(Cl)cc2)cc1
IC50 [1]: > 150 µM | CC50 [3]: 123 µM | CC50 at 72 h [4]: 123 µM

S=c1[nH]cnc2c1c(-c1ccccc1)c(-c1ccccc1)n2-c1cccc(Cl)c1
IC50 [1]: > 150 µM | CC50 [3]: 145 µM | CC50 at 72 h [4]: 145 µM

Clc1ccc(/C=N/Nc2ncnc3c2c(-c2ccccc2)c(-c2ccccc2)n3-c2ccc(Cl)cc2)cc1
IC50 [1]: 93.6 µM | inhibition (INH) [2]: 70% | CC50 [3]: 131 µM | CC50 at 72 h [4]: 131 µM

N#Cc1c(-c2ccccc2)c(-c2ccccc2)n(-c2cccc(Cl)c2)c1N
IC50 [1]: > 150 µM | CC50 [3]: 189 µM | CC50 at 72 h [4]: 189 µM

CC(=O)Nc1c(C#N)c(-c2ccccc2)c(-c2ccccc2)n1C1CCCCC1
IC50 [1]: > 150 µM | CC50 [3]: 183 µM | CC50 at 72 h [4]: 183 µM

NNc1ncnc2c1c(-c1ccccc1)c(-c1ccccc1)n2-c1ccc(Cl)cc1
IC50 [1]: > 150 µM | inhibition (INH) [2]: 0% | CC50 [3]: 146 µM | CC50 at 72 h [4]: 146 µM

C(=N\Nc1ncnc2c1c(-c1ccccc1)c(-c1ccccc1)n2C1CCCCC1)/c1ccccc1
IC50 [1]: > 150 µM | CC50 [3]: 148 µM | CC50 at 72 h [4]: 148 µM

Clc1ccc(/C=N/Nc2ncnc3c2c(-c2ccccc2)c(-c2ccccc2)n3C2CCCCC2)cc1
IC50 [1]: > 150 µM | CC50 [3]: 158 µM | CC50 at 72 h [4]: 158 µM

Cc1cccc(Nc2ncnc3c2c(-c2ccccc2)c(-c2ccccc2)n3C2CCCCC2)c1
IC50 [1]: > 150 µM | CC50 [3]: 131 µM | CC50 at 72 h [4]: 131 µM

Cc1ccc(Nc2ncnc3c2c(-c2ccccc2)c(-c2ccccc2)n3-c2cccc(Cl)c2)cc1
IC50 [1]: > 150 µM | CC50 [3]: 123 µM | CC50 at 72 h [4]: 123 µM

S=c1[nH]nc2c3c(-c4ccccc4)c(-c4ccccc4)n(-c4ccc(Cl)cc4)c3ncn12
IC50 [1]: > 150 µM | CC50 [3]: 138 µM | CC50 at 72 h [4]: 138 µM

Cc1ccccc1Nc1ncnc2c1c(-c1ccccc1)c(-c1ccccc1)n2C1CCCCC1
IC50 [1]: > 150 µM | CC50 [3]: 153 µM | CC50 at 72 h [4]: 153 µM

c1ccc(Nc2ncnc3c2c(-c2ccccc2)c(-c2ccccc2)n3C2CCCCC2)cc1
IC50 [1]: > 150 µM | CC50 [3]: 158 µM | CC50 at 72 h [4]: 158 µM

NNc1ncnc2c1c(-c1ccccc1)c(-c1ccccc1)n2-c1cccc(Cl)c1
IC50 [1]: > 150 µM | inhibition (INH) [2]: 0% | CC50 [3]: 146 µM | CC50 at 72 h [4]: 146 µM

Cc1cccc(Nc2ncnc3c2c(-c2ccccc2)c(-c2ccccc2)n3-c2cccc(Cl)c2)c1
IC50 [1]: > 150 µM | CC50 [3]: 103 µM | CC50 at 72 h [4]: 103 µM

Cc1ccccc1Nc1ncnc2c1c(-c1ccccc1)c(-c1ccccc1)n2-c1ccc(Cl)cc1
IC50 [1]: 82.1 µM | inhibition (INH) [2]: 90% | CC50 [3]: 144 µM | CC50 at 72 h [4]: 144 µM

O=c1[nH]nc2c3c(-c4ccccc4)c(-c4ccccc4)n(-c4ccc(Cl)cc4)c3ncn12
IC50 [1]: > 150 µM | CC50 [3]: 160 µM | CC50 at 72 h [4]: 160 µM

O=c1[nH]nc2c3c(-c4ccccc4)c(-c4ccccc4)n(C4CCCCC4)c3ncn12
IC50 [1]: > 150 µM | CC50 [3]: 171 µM | CC50 at 72 h [4]: 171 µM

COc1ccc(/C=N/Nc2ncnc3c2c(-c2ccccc2)c(-c2ccccc2)n3-c2cccc(Cl)c2)cc1
IC50 [1]: > 150 µM | CC50 [3]: 151 µM | CC50 at 72 h [4]: 151 µM

Cc1ccccc1Nc1ncnc2c1c(-c1ccccc1)c(-c1ccccc1)n2-c1cccc(Cl)c1
IC50 [1]: 92.4 µM | inhibition (INH) [2]: 76.7% | CC50 [3]: 144 µM | CC50 at 72 h [4]: 144 µM

Clc1cccc(-n2c(-c3ccccc3)c(-c3ccccc3)c3c2ncn2cnnc32)c1
IC50 [1]: > 150 µM | CC50 [3]: 190 µM | CC50 at 72 h [4]: 190 µM

Clc1cccc(-n2c(-c3ccccc3)c(-c3ccccc3)c3c(Nc4ccccc4)ncnc32)c1
IC50 [1]: > 150 µM | CC50 [3]: 148 µM | CC50 at 72 h [4]: 148 µM

Clc1ccc(-n2c(-c3ccccc3)c(-c3ccccc3)c3c2ncn2cnnc32)cc1
IC50 [1]: > 150 µM | CC50 [3]: 190 µM | CC50 at 72 h [4]: 190 µM

Cc1nc2c(c(-c3ccccc3)c(-c3ccccc3)n2C2CCCCC2)c(=O)[nH]1
IC50 [1]: > 150 µM | CC50 [3]: 130 µM | CC50 at 72 h [4]: 130 µM

Cc1nnc2c3c(-c4ccccc4)c(-c4ccccc4)n(-c4cccc(Cl)c4)c3ncn12
IC50 [1]: > 150 µM | CC50 [3]: 161 µM | CC50 at 72 h [4]: 161 µM

S=c1[nH]nc2c3c(-c4ccccc4)c(-c4ccccc4)n(C4CCCCC4)c3ncn12
IC50 [1]: > 150 µM | CC50 [3]: 188 µM | CC50 at 72 h [4]: 188 µM

NNc1ncnc2c1c(-c1ccccc1)c(-c1ccccc1)n2C1CCCCC1
IC50 [1]: > 150 µM | CC50 [3]: 157 µM | CC50 at 72 h [4]: 157 µM

N#Cc1c(-c2ccccc2)c(-c2ccccc2)n(-c2ccc(Cl)cc2)c1N
IC50 [1]: > 150 µM | CC50 [3]: 189 µM | CC50 at 72 h [4]: 189 µM

CC(=O)Nc1c(C#N)c(-c2ccccc2)c(-c2ccccc2)n1-c1cccc(Cl)c1
IC50 [1]: > 150 µM | CC50 [3]: 146 µM | CC50 at 72 h [4]: 146 µM

Clc1ccc(-n2c(-c3ccccc3)c(-c3ccccc3)c3c(Nc4ccccc4)ncnc32)cc1
IC50 [1]: > 150 µM | CC50 [3]: 127 µM | CC50 at 72 h [4]: 127 µM

COc1ccc(/C=N/Nc2ncnc3c2c(-c2ccccc2)c(-c2ccccc2)n3-c2ccc(Cl)cc2)cc1
IC50 [1]: > 150 µM | CC50 [3]: 113 µM | CC50 at 72 h [4]: 113 µM

Clc1ccc(-n2c(-c3ccccc3)c(-c3ccccc3)c3c(N/N=C/c4ccccc4)ncnc32)cc1
IC50 [1]: > 150 µM | CC50 [3]: 140 µM | CC50 at 72 h [4]: 140 µM

Cc1cc(C)n(-c2ncnc3c2c(-c2ccccc2)c(-c2ccccc2)n3-c2cccc(Cl)c2)n1
IC50 [1]: > 150 µM | CC50 [3]: 147 µM | CC50 at 72 h [4]: 147 µM

O=c1[nH]nc2c3c(-c4ccccc4)c(-c4ccccc4)n(-c4cccc(Cl)c4)c3ncn12
IC50 [1]: > 150 µM | CC50 [3]: 183 µM | CC50 at 72 h [4]: 183 µM

Clc1ccc(-n2c(-c3ccccc3)c(-c3ccccc3)c3c(Cl)ncnc32)cc1
IC50 [1]: 108 µM | inhibition (INH) [2]: 73.3% | CC50 [3]: 120 µM | CC50 at 72 h [4]: 120 µM

O=c1[nH]cnc2c1c(-c1ccccc1)c(-c1ccccc1)n2-c1ccc(Cl)cc1
IC50 [1]: > 150 µM | CC50 [3]: 151 µM | CC50 at 72 h [4]: 151 µM

— ChEMBL document CHEMBL3797151, “Design, synthesis, assessment, and molecular docking of novel pyrrolopyrimidine (7-deazapurine) derivatives as non-nucleoside hepatitis C virus NS5B polymerase inhibitors” (Bioorg Med Chem, 2016)
